# Source: US8741955B2, “D-serine transporter inhibitors as pharmaceutical compositions for the treatment of central nervous system disorders” (Allergan, Inc., priority 2011, dated 2014)
# pIC50: −log10 of the molar value. Entries after “also recorded” stand apart in the source; their conditions may differ.
# What was measured:
# asc-1 = target: T1, asc-1 (Rattus norvegicus, UniProt P63116); test: sodium-independent [3H]D-serine transport into rat forebrain synaptosomes; assay type: biochemical; conditions: inhibition of [3H]D-serine transport, rat brain synaptosomes; means of at least two determinations
# T1 construct: from tissue; host or cells: rat forebrain P2 (synaptosome) fraction
# T1 sequence (P63116 1-530): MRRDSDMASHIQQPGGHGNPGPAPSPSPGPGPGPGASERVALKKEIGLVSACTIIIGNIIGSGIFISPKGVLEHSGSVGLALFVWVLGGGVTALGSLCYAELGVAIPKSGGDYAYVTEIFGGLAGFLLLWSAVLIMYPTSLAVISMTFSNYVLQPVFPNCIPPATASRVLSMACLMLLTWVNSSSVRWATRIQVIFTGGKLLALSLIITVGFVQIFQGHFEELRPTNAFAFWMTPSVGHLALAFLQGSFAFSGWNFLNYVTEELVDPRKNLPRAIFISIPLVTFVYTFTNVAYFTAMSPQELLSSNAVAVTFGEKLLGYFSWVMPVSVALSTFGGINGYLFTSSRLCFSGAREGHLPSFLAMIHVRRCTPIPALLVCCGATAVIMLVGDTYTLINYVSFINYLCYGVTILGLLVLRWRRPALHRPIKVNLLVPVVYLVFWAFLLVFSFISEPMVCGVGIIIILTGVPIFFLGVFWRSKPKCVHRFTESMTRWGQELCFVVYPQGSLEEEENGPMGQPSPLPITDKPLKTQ
# T1 sequence (Q794F9 1-527 partner): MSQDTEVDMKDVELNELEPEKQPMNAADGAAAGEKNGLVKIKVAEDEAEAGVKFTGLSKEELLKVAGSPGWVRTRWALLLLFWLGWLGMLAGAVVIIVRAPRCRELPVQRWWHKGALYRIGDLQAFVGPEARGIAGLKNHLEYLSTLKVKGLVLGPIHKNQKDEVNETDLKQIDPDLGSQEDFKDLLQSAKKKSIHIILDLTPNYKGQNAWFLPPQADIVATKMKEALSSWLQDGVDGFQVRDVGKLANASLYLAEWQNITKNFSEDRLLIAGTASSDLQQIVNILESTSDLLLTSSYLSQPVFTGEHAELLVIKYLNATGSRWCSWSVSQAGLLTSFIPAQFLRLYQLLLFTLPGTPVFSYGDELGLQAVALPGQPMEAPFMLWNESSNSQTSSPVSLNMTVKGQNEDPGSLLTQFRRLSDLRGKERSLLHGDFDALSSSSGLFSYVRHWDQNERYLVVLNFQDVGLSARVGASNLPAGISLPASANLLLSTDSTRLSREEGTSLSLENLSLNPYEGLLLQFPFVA
# Experimental: Under the assay conditions used, the sodium-independent transport of D-serine by rodent forebrain synaptosomes is mediated by asc-1 (Rutter et al., 2007), and the sodium-dependent transport of D-serine into astrocytes in culture is mediated by an ASCT transporter, ASCT2 according to the literature (Ribeiro et al., 2002).
# Synaptosome assays: a P2 fraction of rat forebrain was prepared and assayed immediately. Aliquots of the P2 preparation (approx. 1 mg of original tissue weight) were incubated in sodium-free assay buffer (CholineCl: 128 mM, KCl: 3.5 mM; KH2PO4: 1.5 mM; MgCl2: 1 mM; CaCl2: 1 mM; glucose: 10 mM; Tris-acetate buffer: 10 mM, pH7.4) containing [^3H]D-serine (final concentration of 50 nM) and test compounds in duplicate for 4 mins at room temperature. The synaptosomes containing radiolabel were collected by filtration onto Whatman GF/C filters, and washed twice with ice cold assay buffer. Filters were solubilized in scintillation fluid and radioactivity determined in a beta counter. IC50 values were determined as described for the cell-based assays above.
# [1] = test system: LTP in the rat hippocampal slice; test: LTP in the rat hippocampal slice preparation; conditions: 100 μM
# [2] = test system: rat hippocampal astrocytes; test: [3H]D-serine transport into primary cultures of rat hippocampal astrocytes; assay type: cell-based; conditions: for pIC50: Astrocyte, inhibition of [3H]D-serine transport, rat hippocampal astrocytes, means of at least two determinations; for fraction of D-serine transport represented by the component for which the compound shows higher affinity: two-component inhibition curves in astrocytes
# [3] = test system: amphetamine-induced hyperlocomotion in mice; test: amphetamine induced hyperactivity; assay type: in vivo; conditions: for effect on amphetamine-induced hyperactivity/hyperlocomotion: systemic administration, amphetamine 2 mg/kg s.c.
# Experimental: C57B/6 male mice (n=5-10/group) were placed in an open field apparatus and their activity was measured for 30 minutes. At 30 minutes, they received a vehicle injection or injection of test compound followed by an injection of amphetamine (2 mg/kg, s.c.) at minute 45. Their activity levels were subsequently measured for another 1 hour post-injection. Total activity for each 5 minute bin (21 total bins) was added to establish the activity curve over the 105 minute testing.
# human ASCT1 = target: T2, human ASCT1 (Homo sapiens, UniProt P43007); test: transport into HEK cells expressing ASCT1; assay type: cell-based; conditions: [3H]L-serine transport, HEK cells
# T2 construct: expressed in transfected cells; host or cells: HEK (human embryonic kidney) cells
# T2 sequence (P43007 1-532): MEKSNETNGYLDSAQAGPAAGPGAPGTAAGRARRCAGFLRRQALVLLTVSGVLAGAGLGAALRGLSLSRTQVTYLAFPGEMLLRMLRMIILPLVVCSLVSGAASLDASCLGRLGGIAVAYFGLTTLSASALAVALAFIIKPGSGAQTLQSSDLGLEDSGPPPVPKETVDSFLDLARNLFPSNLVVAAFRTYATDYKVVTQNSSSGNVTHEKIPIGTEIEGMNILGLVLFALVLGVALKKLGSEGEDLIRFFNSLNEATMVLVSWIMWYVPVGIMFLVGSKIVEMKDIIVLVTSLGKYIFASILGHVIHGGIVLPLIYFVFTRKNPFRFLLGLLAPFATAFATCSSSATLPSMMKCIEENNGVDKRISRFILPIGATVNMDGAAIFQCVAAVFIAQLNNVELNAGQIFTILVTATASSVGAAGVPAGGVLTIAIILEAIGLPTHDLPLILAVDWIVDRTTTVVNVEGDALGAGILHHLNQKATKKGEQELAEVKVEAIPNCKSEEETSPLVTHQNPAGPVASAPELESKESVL
# Experimental: (§1) Cell-based assays: the transport of [^3H]L- or D-serine was measured in primary cultures of rat hippocampal astrocytes or in human embryonic kidney (HEK) cells expressing ASCT transporter sub-types. For the astrocyte assays, cells were plated on either 24- or 96-well plates at a density of 50,000 cells per well. For the HEK assays, cells were plated on coated 96-well plates at a density of 80,000 cells/well. Assays were conducted in duplicate at room temperature in assay buffer consisting of: NaCl: 150 mM, KCl: 2 mM; MgCl2: 1 mM; CaCl2: 1 mM; HEPES: Tris buffer: 10 mM, pH7.4. To assess the sodium-dependence of transport, NaCl was replaced in the assay buffer by equimolar choline chloride. Following aspiration of growth medium and 2 washes with assay buffer, cells were incubated with [^3H]L- or D-serine at a final concentration of 1 μM for 5 min (astrocytes) or 1 min (HEK cells), after which the incubation medium was aspirated and the cells washed twice with ice-cold assay buffer. Cells containing radiolabel were solubilized in 100 μl of 1% Triton-X100 and an aliquot counted in a beta counter. IC50 values were determined over a range of at least 6 concentrations and derived from curve-fitting algorithms available in GraphPad Prism 4.
# human ASCT2 = target: T3, human ASCT2 (Homo sapiens, UniProt Q15758); test: transport into HEK cells expressing ASCT2; assay type: cell-based; conditions: [3H]L-serine transport, HEK cells
# T3 construct: expressed in transfected cells; host or cells: HEK (human embryonic kidney) cells
# T3 sequence (Q15758 1-541): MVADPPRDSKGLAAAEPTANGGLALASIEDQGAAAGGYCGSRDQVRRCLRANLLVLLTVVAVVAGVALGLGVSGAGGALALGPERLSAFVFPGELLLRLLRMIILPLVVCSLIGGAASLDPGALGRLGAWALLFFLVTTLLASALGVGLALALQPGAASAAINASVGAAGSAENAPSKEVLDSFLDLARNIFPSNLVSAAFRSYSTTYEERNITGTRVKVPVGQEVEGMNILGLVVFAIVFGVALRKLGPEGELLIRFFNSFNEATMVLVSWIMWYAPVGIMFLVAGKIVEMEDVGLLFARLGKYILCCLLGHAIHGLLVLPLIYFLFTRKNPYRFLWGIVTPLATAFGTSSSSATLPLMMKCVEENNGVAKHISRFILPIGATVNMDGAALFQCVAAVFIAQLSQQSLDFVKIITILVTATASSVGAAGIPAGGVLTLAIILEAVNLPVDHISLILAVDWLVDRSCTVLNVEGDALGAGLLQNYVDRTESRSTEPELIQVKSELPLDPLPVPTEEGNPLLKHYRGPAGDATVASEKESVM
# Experimental: as §1
# ASCT2 = conditions: Utsunomiya-Tate 1996; Broer 1999; Torres-Zamorano 1998; cited from earlier work
pIC50 (asc-1),pIC50 [2],Compound,further results
3.34,,"N[C@@H](CCC(=O)Nc1ccc([N+](=O)[O-])cc1)C(=O)O [L-GPNA, L-gamma-glutamyl-4-nitroanilide]",effect on LTP in the rat hippocampal slice [1]: enhance LTP
3.59,4.55,N[C@H](C(=O)O)c1ccc(F)cc1 [L-4-fluorophenylglycine],effect on amphetamine-induced hyperlocomotion at 0.3 mg/kg ip ([3]; 0.3 mg/kg ip): significant effect; effect on amphetamine-induced hyperactivity/hyperlocomotion [3]: potent dose-dependent inhibitor
5.02,4.24,N[C@@H](CO)C(=O)O [L-serine],
,,"O=C(O)[C@@H]1C[C@@H](Cc2ccc(Cl)cc2Cl)CN1 [R-gamma-2,4-dichlorobenzyl-L-proline]",effect on amphetamine-induced hyperactivity/hyperlocomotion [3]: effective
4.53,3.22,N[C@@H](CSc1ccccc1)C(=O)O [S-phenyl-L-cysteine],
3.46,2.80,NC(C(=O)O)c1ccccc1F (racemic) [DL-2-fluorophenylglycine],
3.03,2.78,NC(=O)CC[C@H](N)C(=O)O [L-glutamine],fraction of D-serine transport represented by the component for which the compound shows higher affinity [2]: approximately 40%; selectivity for ASCT2 over ASCT1 (human ASCT2): showed selectivity towards ASCT2; also recorded: selective for ASCT2; affinity for ASCT2 reported in the literature (ASCT2): 23 to 70 µM
4.21,2.52,N[C@@H](CCC(=O)OCc1ccccc1)C(=O)O [L-glutamate-γ-benzyl ester],

Compound,pIC50 (asc-1),pIC50 [2],further results
NC(=O)C[C@H](N)C(=O)O [L-asparagine],3.18,,
O=C(O)[C@@H]1C[C@@H](O)CN1 [L-trans-4-hydroxyproline],< 2.00,4.41,fraction of D-serine transport represented by the component for which the compound shows higher affinity [2]: approximately 60%; selectivity for ASCT1 over ASCT2 (human ASCT1; listed as L-t-4OHPro): showed selectivity towards ASCT1; selectivity for ASCT1 over ASCT2 (human ASCT1; listed as L-trans-4OHPro): selective for ASCT1
N[C@@H](CSCc1ccccc1)C(=O)O [S-benzyl-L-cysteine],4.07,,
